Results reported in PubChem BioAssay AID2834 (Southern Research Specialized Biocontainment Screening …, 2010).
pIC50: −log10 of the molar value. The source made the active and inactive calls.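 The calls were made as follows: active = more than 40% inhibition of the growth reporter signal at one or more tested doses; inactive = below 40% inhibition at every dose.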

Each compound was assayed on S. Typhimurium nmpC-GFP reporter (non-PhoP growth counter-screen), low Mg2+, 4 h (assay: nmpC-GFP reporter inhibition in S. Typhimurium, dose response, counter-screen for PhoP regulon inhibitor project, purified and synthesized compounds, set 2 (AID 2834)).

| Structure (SMILES) | pIC50 | IC50 |
| --- | --- | --- |
| CCn1cc(C(=O)O)c(=O)c2cc(F)c(N3CCN(C(=S)NC(=O)c4ccccc4F)CC3)cc21 | > 6.82 |  |
| COc1ccccc1Nc1nc(NCc2ccco2)c2ccccc2n1 | > 6.82 |  |
| O=[N+]([O-])c1ccc(CNC2CCCc3ccccc32)cc1 (configuration not stated) | > 6.82 |  |
| O=C1C2=C(Nc3ccccc3SC2c2ccccc2C(F)(F)F)c2ccccc21 (configuration not stated) |  | > 150 µM (inactive) |
| O=C(NCc1ccccc1)N1CCCN(Cc2ccccc2F)C1 |  | > 150 µM (inactive) |
| CN1CCN(C2=Cc3cc(Cl)ccc3Sc3cc(F)ccc32)CC1 | > 6.82 |  |
| O=c1c2ccccc2[nH]c2ccc(F)cc12 | > 6.82 |  |
| O=C(Nc1ccccc1)N1CCCN(Cc2ccccc2F)C1 |  | > 150 µM (inactive) |
| Cc1cccc(NC(=S)NCc2ccc(Cl)cc2)c1 |  | > 150 µM (inactive) |
| CN1CCc2nc(SCC(=O)Nc3cccc(F)c3)c(C#N)c(-c3cccs3)c2C1 | > 6.82 |  |
| CN(C)CCCN(C(=O)CCc1ccccc1)c1nc2ccc(Cl)cc2s1 | > 6.82 |  |
| CCCCn1c(NS(=O)(=O)c2ccc(C)cc2)c(S(=O)(=O)c2ccccc2)c2nc3ccccc3nc21 | > 6.82 |  |
| O=C1c2ccccc2C2=Nc3ccccc3SC(c3ccccc3F)C12 (configuration not stated) | > 6.82 |  |
| O=C1C2=C(Nc3ccccc3SC2c2ccccc2Br)c2ccccc21 (configuration not stated) |  | > 150 µM (inactive) |
| COc1ccc(CNC(=S)Nc2ccncc2)cc1 |  | > 150 µM (inactive) |
| CCn1cc(C(=O)O)c(=O)c2cc(F)c(N3CCN(C(=S)Nc4ccc(Cl)cc4)CC3)cc21 | 3.88 |  |
| S=C(NCc1ccc(Cl)cc1)Nc1cccc(Cl)c1 |  | > 150 µM (inactive) |
| CCn1cc(C(=O)O)c(=O)c2cc(F)c(N3CCN(C(=S)Nc4ccccc4C(F)(F)F)CC3)cc21 | 4.12 |  |
| Cc1ccc(NC(=S)NCc2ccc(Cl)cc2)cc1 |  | > 150 µM (inactive) |

| Structure (SMILES) | pIC50 | IC50 |
| --- | --- | --- |
| S=C(NCc1ccc(Cl)cc1)Nc1ccc(Br)cc1 |  | > 150 µM (inactive) |
| N#C/C(=C\c1ccc[nH]1)C(=O)NC1CC1 | > 6.82 |  |
| Fc1ccccc1NC(=S)NCc1ccc(Cl)cc1 |  | > 150 µM (inactive) |
| CCOc1ccc(NC(=S)N2CCN(c3cc4c(cc3F)c(=O)c(C(=O)O)cn4CC)CC2)cc1 |  | > 150 µM (inactive) |
| O=C(Nc1ccccc1Cl)N1CCCN(Cc2ccccc2F)C1 |  | > 150 µM (inactive) |
| CCn1cc(C(=O)O)c(=O)c2cc(F)c(N3CCN(C(=S)Nc4ccccc4Cl)CC3)cc21 |  | > 150 µM (inactive) |
| S=C(NCc1ccccc1Cl)Nc1ccncc1 |  | > 150 µM (inactive) |
| Cc1ccc(Nc2cc(C)c3c(O)cccc3n2)cc1C | > 6.82 |  |
| CCn1cc(C(=O)O)c(=O)c2cc(F)c(N3CCN(C(=S)NCc4ccccc4)CC3)cc21 |  | > 150 µM (inactive) |
| COc1ccc(NC(=O)c2cc(Br)c(Br)s2)cn1 | > 6.82 |  |
| CCn1cc(C(=O)O)c(=O)c2cc(F)c(N3CCN(C(=S)NC(=O)c4ccccc4Cl)CC3)cc21 | > 6.82 |  |
| O=C1C2=C(Nc3ccccc3SC2c2cccc(Cl)c2)c2ccccc21 (configuration not stated) |  | > 150 µM (inactive) |
| O=C1C2=C(Nc3ccccc3SC2c2ccc(C(F)(F)F)cc2)c2ccccc21 (configuration not stated) |  | > 150 µM (inactive) |
| O=C(Nc1cccnc1)c1cc(Br)c(Br)s1 | > 6.82 |  |
| CCn1cc(C(=O)O)c(=O)c2cc(F)c(N3CCN(C(=S)NC)CC3)cc21 |  | > 150 µM (inactive) |
| O=S(=O)(Nc1c(S(=O)(=O)c2ccccc2)c2nc3ccccc3nc2n1C1CCCCC1)c1ccccc1 | > 6.82 |  |
| O=C1C2=C(Nc3ccccc3SC2c2ccccc2Cl)c2ccccc21 (configuration not stated) |  | > 150 µM (inactive) |
| CCCCCNC(=O)c1cn(CC)c2cc(N3CCN(C)CC3)c(F)cc2c1=O | > 6.82 |  |
| O=C(Nc1ccccc1)N1CCCN(Cc2ccc(F)cc2)C1 |  | > 150 µM (inactive) |

| Structure (SMILES) | pIC50 | IC50 |
| --- | --- | --- |
| CCn1cc(C(=O)O)c(=O)c2cc(F)c(N3CCN(C(=S)Nc4ccccc4C)CC3)cc21 |  | > 150 µM (inactive) |
| O=C(Nc1ccc(Cl)cc1)N1CCCN(Cc2ccccc2F)C1 | > 6.82 |  |
| O=C1C2=C(Nc3ccccc3SC2c2ccco2)c2ccccc21 (configuration not stated) | > 6.82 |  |
| O=C(Nc1ccc(Cl)cc1)N1CCCN(Cc2ccc(F)cc2)C1 |  | > 150 µM (inactive) |
| CCCCn1c(NS(=O)(=O)c2ccccc2)c(S(=O)(=O)c2ccc(C)cc2)c2nc3ccccc3nc21 | > 6.82 |  |
| COc1ccccc1NC(=O)N1CCCN(Cc2ccccc2F)C1 |  | > 150 µM (inactive) |
| C1=C(CCNc2ncnc3c2[nH]c2ccccc23)CCCC1 | > 6.82 |  |
| COc1c(N2CCN(C(=S)NCc3ccccc3)C(C)C2)c(F)cc2c(=O)c(C(=O)O)cn(C3CC3)c12 (configuration not stated) | > 6.82 |  |
| Cc1ccc(CN2CCCN(C(=O)Nc3ccc(Cl)cc3)C2)cc1 |  | > 150 µM (inactive) |
| O=C(Nc1nnc(-c2cccs2)o1)c1cccc(C(F)(F)F)c1 | > 6.82 |  |
| O=C1C2=C(Nc3ccccc3SC2c2ccsc2)c2ccccc21 (configuration not stated) |  | > 150 µM (inactive) |
| S=C(NCc1ccc(Cl)cc1)Nc1cccnc1 |  | > 150 µM (inactive) |
| COc1cccc(NC(=S)NCc2ccc(Cl)cc2)c1 |  | > 150 µM (inactive) |
| COc1cccc(C2Sc3ccccc3NC3=C2C(=O)c2ccccc23)c1 (configuration not stated) |  | > 150 µM (inactive) |
| CSc1nc2cc(Oc3cccc(Cl)c3Cl)c(Cl)cc2[nH]1 | > 6.82 |  |
| COc1ccc(NC(=S)NCc2ccc(Cl)cc2)cc1 |  | > 150 µM (inactive) |
| O=C(Nc1ccc(Br)cc1)N1CCCN(Cc2ccccc2F)C1 |  | > 150 µM (inactive) |
| S=C(NCc1ccc(Cl)cc1)Nc1ccc(Cl)cc1 |  | > 150 µM (inactive) |
| O=C(O)c1cn(-c2ccc(F)cc2)c2cc(Cl)c(F)cc2c1=O | > 6.82 |  |
